In ChEMBL document CHEMBL1201862, “PubChem BioAssay data set” (2004):
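The compound was tested at five concentrations on cells cultured in 96-well plates, with a 48-hour exposure period. GI50 marks 50% less growth.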 Active and inactive are the calls of the source. No stated cut-off is given here; in the data, active = GI50 up to about 1.1 µM and inactive = higher.

What was measured:
Test in all cases: DTP human tumour cell line panel, 48 h
786-0 = tested on: 786-0
A498 = tested on: A498
A549 = tested on: A549
ACHN = tested on: ACHN
BT-549 = tested on: BT-549
CAKI-1 = tested on: CAKI-1
CCRF-CEM = tested on: CCRF-CEM
COLO 205 = tested on: COLO 205
DU-145 = tested on: DU-145
EKVX = tested on: EKVX
HCC 2998 = tested on: HCC 2998
HCT-116 = tested on: HCT-116
HCT-15 = tested on: HCT-15
HL-60 = tested on: HL-60
HOP-62 = tested on: HOP-62
HOP-92 = tested on: HOP-92
HT-29 = tested on: HT-29
Hs-578T = tested on: Hs-578T
IGROV-1 = tested on: IGROV-1
K562 = tested on: K562
KM12 = tested on: KM12
LOX IMVI = tested on: LOX IMVI
M14 = tested on: M14
MCF7 = tested on: MCF7
MDA-MB-231 = tested on: MDA-MB-231
MDA-MB-435 = tested on: MDA-MB-435
MDA-N = tested on: MDA-N
MOLT-4 = tested on: MOLT-4
Malme-3M = tested on: Malme-3M
NCI-H226 = tested on: NCI-H226
NCI-H23 = tested on: NCI-H23
NCI-H460 = tested on: NCI-H460
NCI-H522 = tested on: NCI-H522
NCI/ADR-RES = tested on: NCI/ADR-RES
OVCAR-3 = tested on: OVCAR-3
OVCAR-4 = tested on: OVCAR-4
OVCAR-5 = tested on: OVCAR-5
OVCAR-8 = tested on: OVCAR-8
PC-3 = tested on: PC-3
RPMI-8226 = tested on: RPMI-8226
RXF 393 = tested on: RXF 393
SF-268 = tested on: SF-268
SF-295 = tested on: SF-295
SF-539 = tested on: SF-539
SK-MEL-28 = tested on: SK-MEL-28
SK-MEL-2 = tested on: SK-MEL-2
SK-MEL-5 = tested on: SK-MEL-5
SK-OV-3 = tested on: SK-OV-3
SN12C = tested on: SN12C
SNB-19 = tested on: SNB-19
SNB-75 = tested on: SNB-75
SW-620 = tested on: SW-620
T47D = tested on: T47D
TK-10 = tested on: TK-10
U-251 = tested on: U-251
UACC-257 = tested on: UACC-257
UACC-62 = tested on: UACC-62
UO-31 = tested on: UO-31

For `CC(=O)O[C@H]1C#C/C=C\C#CC[C@@H]2C(=O)N[C@@H]12`, the GI50 (786-0) was 5.42 µM (inactive), the GI50 (A498) was 21.6 µM (inactive) and the GI50 (A549) was 28.7 µM (inactive). For the same compound, the GI50 (ACHN) was 3.5 µM (inactive), the GI50 (BT-549) was 30.7 µM (inactive) and the GI50 (CAKI-1) was 4.5 µM (inactive). The GI50 (CCRF-CEM) was 4.13 µM (inactive), the GI50 (COLO 205) was 50.4 µM (inactive) and the GI50 (DU-145) was 19.2 µM (inactive). The GI50 (EKVX) was > 100 µM (inactive), the GI50 (HCC 2998) was 25.1 µM (inactive) and the GI50 (HCT-116) was 27 µM (inactive). The GI50 (HCT-15) was 22.4 µM, the GI50 (HL-60) was 1.99 µM (inactive) and the GI50 (HOP-62) was 7.94 µM (inactive). For the same compound, the GI50 (HOP-92) was 46.2 µM (inactive), the GI50 (HT-29) was > 49.8 µM (inactive) and the GI50 (Hs-578T) was 47.3 µM (inactive). The GI50 (IGROV-1) was 22.8 µM (inactive), the GI50 (K562) was > 62.8 µM (inactive) and the GI50 (KM12) was > 100 µM (inactive). For the same compound, the GI50 (LOX IMVI) was 7.78 µM (inactive), the GI50 (M14) was 43.8 µM (inactive) and the GI50 (MCF7) was 4 µM (inactive). The GI50 (MDA-MB-231) was > 100 µM (inactive), the GI50 (MDA-MB-435) was > 100 µM (inactive) and the GI50 (MDA-N) was 81.7 µM (inactive). The GI50 (MOLT-4) was 231 nM (active), the GI50 (Malme-3M) was 22.9 µM (inactive) and the GI50 (NCI-H226) was 25.7 µM (inactive). The GI50 (NCI-H23) was 11.2 µM (inactive), the GI50 (NCI-H460) was 38.2 nM (active) and the GI50 (NCI-H522) was 19.1 µM (inactive). For the same compound, the GI50 (NCI/ADR-RES) was 20.7 µM (inactive), the GI50 (OVCAR-3) was > 78.3 µM (inactive) and the GI50 (OVCAR-4) was > 100 µM (inactive). The GI50 (OVCAR-5) was > 100 µM (inactive), the GI50 (OVCAR-8) was 19.8 µM (inactive) and the GI50 (PC-3) was > 100 µM (inactive). For the same compound, the GI50 (RPMI-8226) was 21.3 µM (inactive), the GI50 (RXF 393) was 23.2 µM (inactive) and the GI50 (SF-268) was 18.6 µM (inactive). The GI50 (SF-295) was 24.5 µM (inactive), the GI50 (SF-539) was 726 nM (active) and the GI50 (SK-MEL-28) was 93.3 µM (inactive). The GI50 (SK-MEL-2) was 67.8 µM (inactive), the GI50 (SK-MEL-5) was 29.9 µM (inactive) and the GI50 (SK-OV-3) was 57.8 µM (inactive). The GI50 (SN12C) was 26 µM (inactive), the GI50 (SNB-19) was 31.3 µM (inactive) and the GI50 (SNB-75) was 28.1 µM (inactive). For the same compound, the GI50 (SW-620) was > 51.3 µM (inactive), the GI50 (T47D) was 52.7 µM (inactive) and the GI50 (TK-10) was > 59.7 µM (inactive). For the same compound, the GI50 (U-251) was 20.9 µM (inactive), the GI50 (UACC-257) was > 42.4 µM (inactive) and the GI50 (UACC-62) was 26.4 µM (inactive). The GI50 (UO-31) was 3.13 µM (inactive).
